Measurements published in the NIST ThermoML archive (doi:10.1016/j.jct.2004.07.006).
Numbers after ± are expanded uncertainties.

Assay: mn = molality of the nth substance listed, in mol/kg
Conditions: 298.15 K, 101.33 kPa, Liquid

What does the source list for `NCC(=O)O` [2-aminoacetic acid] + O?
viscosity (m1 = 0.4993): 0.9561 ± 0.031 mPa·s; viscosity (m1 = 0.7501): 0.9914 ± 0.032 mPa·s; viscosity (m1 = 1): 1.028 ± 0.033 mPa·s; viscosity (m1 = 1.499): 1.106 ± 0.035 mPa·s; viscosity (m1 = 1.5): 1.106 ± 0.035 mPa·s; viscosity (m1 = 2): 1.189 ± 0.037 mPa·s

Which results are given for `C[C@H](N)C(=O)O` [(S)-2-aminopropanoic acid] + O?
viscosity (m1 = 0.1002): 0.9179 ± 0.03 mPa·s; viscosity (m1 = 0.4992): 1.017 ± 0.032 mPa·s; viscosity (m1 = 0.7503): 1.08 ± 0.034 mPa·s; viscosity (m1 = 0.9992): 1.152 ± 0.036 mPa·s

Which viscosity (m1 = 0.0995) does the source give for `NCC(=O)NCC(=O)O` [glycylglycine] + O here?
Its viscosity is 0.9265 ± 0.03 mPa·s.

What about the viscosity (m1 = 0.0998) of the same compound?
The viscosity was 0.9265 ± 0.03 mPa·s.

And the viscosity (m1 = 0.5004)?
Its viscosity is 1.062 ± 0.034 mPa·s.

What about the viscosity (m1 = 0.7502) of the same compound?
The viscosity was 1.145 ± 0.036 mPa·s.
